Test results from the supplement of paper PMC10307832.

Columns and labels:
Assay in all cases: relative viability (nuclei count vs DMSO), 5 days (fraction); higher = more cells survive
[1] = compound: C1CCC(CC1)N(CCNCCC2=C3C(=C(C=C2)O)NC(=O)CO3)C(=O)CCNCCC4=CC(=C(C=C4)Cl)Cl [AZ505] + CC(=O)c1c(C)c2cnc(Nc3ccc(N4CCNCC4)cn3)nc2n(C2CCCC2)c1=O [Palbociclib] (partner 0.5 µM)
Method in brief: (§1)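 A single step with final 0.05% Triton X-100, 1% formaldehyde and 1 ug/ml Hoechst fixed the cells and stained nuclei 5 days after treatment. Lung cancer cell lines in 1536-well plates had been treated by pin tool the day after seeding with one drug alone or a fixed anchor-drug dose plus five library-drug doses (not always all listed) in √10 steps, and nuclei were counted on 4× images. Relative viability is the ratio of nuclei in treated wells to nuclei in vehicle wells, taken as the median of duplicate plates.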

[2] = compound: C1CCC(CC1)N(CCNCCC2=C3C(=C(C=C2)O)NC(=O)CO3)C(=O)CCNCCC4=CC(=C(C=C4)Cl)Cl [AZ505] + CCNC(=O)c1noc(-c2cc(C(C)C)c(O)cc2O)c1-c1ccc(CN2CCOCC2)cc1 [Luminespib] (partner 0.01 µM)
Method in brief: as §1

[3] = compound: C1CCC(CC1)N(CCNCCC2=C3C(=C(C=C2)O)NC(=O)CO3)C(=O)CCNCCC4=CC(=C(C=C4)Cl)Cl [AZ505] + NC(=O)Nc1cc(-c2cccc(F)c2)sc1C(=O)N[C@H]1CCCNC1 [AZD7762] (partner 0.2 µM)
Method in brief: as §1

[4] = compound: Cn1c(=O)n(-c2ccc(C(C)(C)C#N)cc2)c2c3cc(-c4cnc5ccccc5c4)ccc3ncc21 [Dactolisib] + CC(=O)c1c(C)c2cnc(Nc3ccc(N4CCNCC4)cn3)nc2n(C2CCCC2)c1=O [Palbociclib] (partner 0.5 µM)
Method in brief: as §1

201T showed a relative viability ([1]; first compound 0.08 µM) of 0.36, a relative viability ([1]; first compound 0.253 µM) of 0.353 and a relative viability ([1]; first compound 0.8 µM) of 0.331. The relative viability ([1]; first compound 2.53 µM) was 0.357, the relative viability ([1]; first compound 8 µM) was 0.353 and the relative viability ([2]; first compound 0.08 µM) was 1.01. The relative viability ([2]; first compound 0.253 µM) was 1.05, the relative viability ([2]; first compound 0.8 µM) was 1.01 and the relative viability ([2]; first compound 2.53 µM) was 1.02. The relative viability ([2]; first compound 8 µM) was 1.08, the relative viability ([3]; first compound 0.08 µM) was 0.63 and the relative viability ([3]; first compound 0.253 µM) was 0.572. It also gave a relative viability ([3]; first compound 0.8 µM) of 0.688, a relative viability ([3]; first compound 2.53 µM) of 0.596 and a relative viability ([3]; first compound 8 µM) of 0.613. For the same cell line, the relative viability ([4]; first compound 0.002 µM) was 0.363, the relative viability ([4]; first compound 0.006325 µM) was 0.356 and the relative viability ([4]; first compound 0.02 µM) was 0.334. It also gave a relative viability ([4]; first compound 0.06325 µM) of 0.279 and a relative viability ([4]; first compound 0.2 µM) of 0.267.

In the case of NCI-H2126, the relative viability ([1]; first compound 0.08 µM) is reported as 0.353, the relative viability ([1]; first compound 0.253 µM) is reported as 0.375 and the relative viability ([1]; first compound 0.8 µM) is reported as 0.365. The relative viability ([1]; first compound 2.53 µM) was 0.366, the relative viability ([1]; first compound 8 µM) was 0.338 and the relative viability ([2]; first compound 0.08 µM) was 0.771. It also gave a relative viability ([2]; first compound 0.253 µM) of 0.889, a relative viability ([2]; first compound 0.8 µM) of 0.903 and a relative viability ([2]; first compound 2.53 µM) of 0.943. For the same cell line, the relative viability ([2]; first compound 8 µM) was 1.02, the relative viability ([3]; first compound 0.08 µM) was 0.939 and the relative viability ([3]; first compound 0.253 µM) was 1.02. The relative viability ([3]; first compound 0.8 µM) was 1.02, the relative viability ([3]; first compound 2.53 µM) was 0.985 and the relative viability ([3]; first compound 8 µM) was 1.08. It also gave a relative viability ([4]; first compound 0.002 µM) of 0.369, a relative viability ([4]; first compound 0.006325 µM) of 0.359 and a relative viability ([4]; first compound 0.02 µM) of 0.33. The relative viability ([4]; first compound 0.06325 µM) was 0.352 and the relative viability ([4]; first compound 0.2 µM) was 0.316.

In the case of HOP-62, the relative viability ([1]; first compound 0.08 µM) is reported as 0.403, the relative viability ([1]; first compound 0.253 µM) is reported as 0.535 and the relative viability ([1]; first compound 0.8 µM) is reported as 0.461. For the same cell line, the relative viability ([1]; first compound 2.53 µM) was 0.475, the relative viability ([1]; first compound 8 µM) was 0.52 and the relative viability ([2]; first compound 0.08 µM) was 0.864. For the same cell line, the relative viability ([2]; first compound 0.253 µM) was 0.883, the relative viability ([2]; first compound 0.8 µM) was 0.824 and the relative viability ([2]; first compound 2.53 µM) was 0.884. It also gave a relative viability ([2]; first compound 8 µM) of 1, a relative viability ([3]; first compound 0.08 µM) of 0.43 and a relative viability ([3]; first compound 0.253 µM) of 0.328. For the same cell line, the relative viability ([3]; first compound 0.8 µM) was 0.682, the relative viability ([3]; first compound 2.53 µM) was 0.63 and the relative viability ([3]; first compound 8 µM) was 0.669. The relative viability ([4]; first compound 0.002 µM) was 0.467, the relative viability ([4]; first compound 0.006325 µM) was 0.45 and the relative viability ([4]; first compound 0.02 µM) was 0.383. For the same cell line, the relative viability ([4]; first compound 0.06325 µM) was 0.288 and the relative viability ([4]; first compound 0.2 µM) was 0.147.

For CAL-12T, the relative viability ([1]; first compound 0.08 µM) was 0.324, the relative viability ([1]; first compound 0.253 µM) was 0.437 and the relative viability ([1]; first compound 0.8 µM) was 0.372. For the same cell line, the relative viability ([1]; first compound 2.53 µM) was 0.477, the relative viability ([1]; first compound 8 µM) was 0.618 and the relative viability ([2]; first compound 0.08 µM) was 0.341. The relative viability ([2]; first compound 0.253 µM) was 0.596, the relative viability ([2]; first compound 0.8 µM) was 0.265 and the relative viability ([2]; first compound 2.53 µM) was 0.377. It also gave a relative viability ([2]; first compound 8 µM) of 0.64, a relative viability ([3]; first compound 0.08 µM) of 0.62 and a relative viability ([3]; first compound 0.253 µM) of 0.647. For the same cell line, the relative viability ([3]; first compound 0.8 µM) was 0.605, the relative viability ([3]; first compound 2.53 µM) was 0.575 and the relative viability ([3]; first compound 8 µM) was 0.814. For the same cell line, the relative viability ([4]; first compound 0.002 µM) was 0.526, the relative viability ([4]; first compound 0.006325 µM) was 0.396 and the relative viability ([4]; first compound 0.02 µM) was 0.256. For the same cell line, the relative viability ([4]; first compound 0.06325 µM) was 0.172 and the relative viability ([4]; first compound 0.2 µM) was 0.133.

For NCI-H1755, the relative viability ([1]; first compound 0.08 µM) was 0.42, the relative viability ([1]; first compound 0.253 µM) was 0.46 and the relative viability ([1]; first compound 0.8 µM) was 0.434. The relative viability ([1]; first compound 2.53 µM) was 0.441, the relative viability ([1]; first compound 8 µM) was 0.442 and the relative viability ([2]; first compound 0.08 µM) was 0.505. It also gave a relative viability ([2]; first compound 0.253 µM) of 0.589, a relative viability ([2]; first compound 0.8 µM) of 0.448 and a relative viability ([2]; first compound 2.53 µM) of 0.594. The relative viability ([2]; first compound 8 µM) was 0.444, the relative viability ([3]; first compound 0.08 µM) was 0.348 and the relative viability ([3]; first compound 0.253 µM) was 0.471. It also gave a relative viability ([3]; first compound 0.8 µM) of 0.495, a relative viability ([3]; first compound 2.53 µM) of 0.421 and a relative viability ([3]; first compound 8 µM) of 0.432. It also gave a relative viability ([4]; first compound 0.002 µM) of 0.482, a relative viability ([4]; first compound 0.006325 µM) of 0.423 and a relative viability ([4]; first compound 0.02 µM) of 0.42. For the same cell line, the relative viability ([4]; first compound 0.06325 µM) was 0.388 and the relative viability ([4]; first compound 0.2 µM) was 0.38.
